Reference: the supplement of paper PMC11061612

Legend:
AZD2811 = compound: CCN(CCO)CCCOc1ccc2c(Nc3cc(CC(=O)Nc4cccc(F)c4)[nH]n3)ncnc2c1 [AZD2811]; conditions: max 1 µM
Outline: (§1)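 Cancer cell lines were plated in 1536-well plates in 7.5 μl of DMEM/F12 or RPMI with 10% FBS and kept 24 hours at 37°C and 5% CO2 before 72 hours of dosing, with final DMSO typically 0.2%. CellTiter-Glo 2.0 luminescence measured viability, scaled between blank-well and DMSO-well means. Dose responses were fitted to a two-parameter logistic curve with a non-linear mixed effects model. This fit gives the single-agent IC50.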

AZD5991 = compound: Cc1c2c(nn1C)CSCc1cc(n(C)n1)CSc1cc(c3ccccc3c1)OCCCc1c(C(=O)O)n(C)c3c-2c(Cl)ccc13 [AZD5991]; conditions: max 1 µM
Outline: as §1

Gefitinib = compound: COc1cc2ncnc(Nc3ccc(F)c(Cl)c3)c2cc1OCCCN1CCOCC1 [Gefitinib]; conditions: max 10 µM
Outline: as §1

AZD5153 = compound: COc1nnc2ccc(N3CCC(c4ccc(OCCN5CCN(C)C(=O)[C@H]5C)cc4)CC3)nn12 [AZD5153]; conditions: max 1 µM
Outline: as §1

SN-38 = compound: CCc1c2c(nc3ccc(O)cc13)-c1cc3c(c(=O)n1C2)COC(=O)[C@]3(O)CC [SN-38]; conditions: max 0.3 µM
Outline: as §1

Lapatinib = compound: CS(=O)(=O)CCNCc1ccc(-c2ccc3ncnc(Nc4ccc(OCc5cccc(F)c5)c(Cl)c4)c3c2)o1 [Lapatinib]; conditions: max 10 µM
Outline: as §1

Prexasertib = compound: COc1cccc(OCCCN)c1-c1cc(Nc2cnc(C#N)cn2)n[nH]1 [Prexasertib]; conditions: max 1 µM
Outline: as §1

Doxorubicin = compound: COc1cccc2c1C(=O)c1c(O)c3c(c(O)c1C2=O)C[C@@](O)(C(=O)CO)C[C@@H]3O[C@H]1C[C@H](N)[C@H](O)[C@H](C)O1 [Doxorubicin]; conditions: max 1 µM
Outline: as §1

AZD7648 = compound: Cc1cc2ncnn2cc1Nc1ncc2c(n1)n(C1CCOCC1)c(=O)n2C [AZD7648]; conditions: max 10 µM
Outline: as §1

Venetoclax = compound: CC1(C)CCC(CN2CCN(c3ccc(C(=O)NS(=O)(=O)c4ccc(NCC5CCOCC5)c([N+](=O)[O-])c4)c(Oc4cnc5[nH]ccc5c4)c3)CC2)=C(c2ccc(Cl)cc2)C1 [Venetoclax]; conditions: max 1 µM
Outline: as §1

Dasatinib = compound: CC1=C(C(=CC=C1)Cl)NC(=O)C2=CN=C(S2)NC3=CC(=NC(=N3)C)N4CCN(CC4)CCO [Dasatinib]; conditions: max 2 µM
Outline: as §1

Crizotinib = compound: C[C@@H](Oc1cc(-c2cnn(C3CCNCC3)c2)cnc1N)c1c(Cl)ccc(F)c1Cl [Crizotinib]; conditions: max 10 µM
Outline: as §1

Capivasertib = compound: C1CN(CCC1(C(=O)N[C@@H](CCO)C2=CC=C(C=C2)Cl)N)C3=NC=NC4=C3C=CN4 [Capivasertib]; conditions: max 10 µM
Outline: as §1

AZD6738 = compound: C[C@@H]1COCCN1C2=NC(=NC(=C2)C3(CC3)[S@](=N)(=O)C)C4=C5C=CNC5=NC=C4 [AZD6738]; conditions: max 10 µM
Outline: as §1

Taselisib = compound: Cc1nc(-c2cn3c(n2)-c2ccc(-c4cnn(C(C)(C)C(N)=O)c4)cc2OCC3)n(C(C)C)n1 [Taselisib]; conditions: max 10 µM
Outline: as §1

AZD4320 = compound: CN(CC[C@H](CSC1=CC=CC=C1)NC2=C(C=C(C=C2)S(=O)(=O)NC(=O)C3=CC=C(C=C3)N4CCC(CC4)[C@H](C5=CC=CC=C5C6=CC=C(C=C6)Cl)O)S(=O)(=O)C(F)(F)F)CCO [AZD4320]; conditions: max 1 µM
Outline: as §1

AZD0156 = compound: CN(C)CCCOc1ccc(-c2ccc3ncc4c(c3c2)n(C2CCOCC2)c(=O)n4C)cn1 [AZD0156]; conditions: max 3 µM
Outline: as §1

Savolitinib = compound: C[C@@H](c1ccc2nccn2c1)n1nnc2ncc(-c3cnn(C)c3)nc21 [Savolitinib]; conditions: max 1 µM
Outline: as §1

Selumetinib = compound: Cn1cnc2c(F)c(Nc3ccc(Br)cc3Cl)c(C(=O)NOCCO)cc21 [Selumetinib]; conditions: max 10 µM
Outline: as §1

Alisertib = compound: COc1cc(Nc2ncc3c(n2)-c2ccc(Cl)cc2C(c2c(F)cccc2OC)=NC3)ccc1C(=O)O [Alisertib]; conditions: max 10 µM
Outline: as §1

SG3199 = compound: CC1=CN2[C@@H](C1)C=NC3=CC(=C(C=C3C2=O)OC)OCCCCCOC4=C(C=C5C(=C4)N=C[C@@H]6CC(=CN6C5=O)C)OC [SG3199]; conditions: max 0.001 µM
Outline: as §1

AZD1390 = compound: CC(C)n1c(=O)n(C)c2cnc3cc(F)c(-c4ccc(OCCCN5CCCCC5)nc4)cc3c21 [AZD1390]; conditions: max 0.3 µM
Outline: as §1

Trametinib = compound: CC(=O)Nc1cccc(-n2c(=O)n(C3CC3)c(=O)c3c(Nc4ccc(I)cc4F)n(C)c(=O)c(C)c32)c1 [Trametinib]; conditions: max 1 µM
Outline: as §1

Palbociclib = compound: CC(=O)c1c(C)c2cnc(Nc3ccc(N4CCNCC4)cn3)nc2n(C2CCCC2)c1=O [Palbociclib]; conditions: max 10 µM
Outline: as §1

AZD8186 = compound: C[C@@H](Nc1cc(F)cc(F)c1)c1cc(C(=O)N(C)C)cc2c(=O)cc(N3CCOCC3)oc12 [AZD8186]; conditions: max 3 µM
Outline: as §1

AZD1775 = compound: C=CCn1c(=O)c2cnc(Nc3ccc(N4CCN(C)CC4)cc3)nc2n1-c1cccc(C(C)(C)O)n1 [AZD1775]; conditions: max 3 µM
Outline: as §1

Olaparib = compound: O=C(c1cc(Cc2n[nH]c(=O)c3ccccc23)ccc1F)N1CCN(C(=O)C2CC2)CC1 [Olaparib]; conditions: max 10 µM
Outline: as §1

MK-2206 = compound: NC1(c2ccc(-c3nc4ccn5c(=O)[nH]nc5c4cc3-c3ccccc3)cc2)CCC1 [MK-2206]; conditions: max 10 µM
Outline: as §1

Cell Line | IC50, cell viability 72 h (AZD2811) [nM] | IC50, cell viability 72 h (AZD5991) [nM] | IC50, cell viability 72 h (Gefitinib) [nM] | IC50, cell viability 72 h (AZD5153) [nM] | IC50, cell viability 72 h (SN-38) [nM] | IC50, cell viability 72 h (Lapatinib) [nM] | IC50, cell viability 72 h (Prexasertib) [nM] | IC50, cell viability 72 h (Doxorubicin) [nM] | IC50, cell viability 72 h (AZD7648) [nM] | IC50, cell viability 72 h (Venetoclax) [nM] | IC50, cell viability 72 h (Dasatinib) [nM] | IC50, cell viability 72 h (Crizotinib) [nM] | IC50, cell viability 72 h (Capivasertib) [nM] | IC50, cell viability 72 h (AZD6738) [nM] | IC50, cell viability 72 h (Taselisib) [nM] | IC50, cell viability 72 h (AZD4320) [nM] | IC50, cell viability 72 h (AZD0156) [nM] | IC50, cell viability 72 h (Savolitinib) [nM] | IC50, cell viability 72 h (Selumetinib) [nM] | IC50, cell viability 72 h (Alisertib) [nM] | IC50, cell viability 72 h (SG3199) [nM] | IC50, cell viability 72 h (AZD1390) [nM] | IC50, cell viability 72 h (Trametinib) [nM] | IC50, cell viability 72 h (Palbociclib) [nM] | IC50, cell viability 72 h (AZD8186) [nM] | IC50, cell viability 72 h (AZD1775) [nM] | IC50, cell viability 72 h (Olaparib) [nM] | IC50, cell viability 72 h (MK-2206) [nM]
KYSE-140 (Esophageal Squamous Cell Carcinoma) | > 1000 | > 1000 | 1930 | 827 | > 300 | 7250 | 12 | > 1000 | > 10000 | > 1000 | 1230 | > 10000 | 1660 | 660 | 1130 | > 1000 | > 3000 | > 1000 | > 10000 | > 10000 | > 1 | > 300 | 858 | > 10000 | > 3000 | 423 | > 10000 | –
LS-411N (Colorectal Carcinoma) | > 1000 | > 1000 | > 10000 | 169 | > 300 | > 10000 | 42.4 | > 1000 | > 10000 | > 1000 | > 2000 | > 10000 | 7040 | 4060 | > 10000 | > 1000 | > 3000 | > 1000 | 1340 | > 10000 | > 1 | > 300 | 44.7 | > 10000 | > 3000 | 412 | > 10000 | > 10000
NCI-H716 (Colorectal Carcinoma) | > 1000 | > 1000 | > 10000 | 775 | > 300 | > 10000 | 181 | > 1000 | > 10000 | > 1000 | > 2000 | > 10000 | > 10000 | > 10000 | > 10000 | > 1000 | > 3000 | > 1000 | > 10000 | 2230 | > 1 | > 300 | > 1000 | > 10000 | > 3000 | 1600 | > 10000 | –
NCI-H2228 (Lung Adenocarcinoma) | > 1000 | > 1000 | > 10000 | > 1000 | 82.4 | > 10000 | 182 | 557 | > 10000 | > 1000 | > 2000 | 5480 | > 10000 | > 10000 | 2010 | > 1000 | > 3000 | > 1000 | > 10000 | 8940 | > 1 | > 300 | 955 | > 10000 | > 3000 | 2870 | > 10000 | –
OACp4C (Esophageal Adenocarcinoma) | 618 | > 1000 | > 10000 | 695 | 104 | 2120 | 116 | 323 | > 10000 | > 1000 | 180 | 3560 | 1630 | 3030 | 93.1 | 117 | > 3000 | > 1000 | 5810 | 1900 | > 1 | > 300 | 56.8 | > 10000 | > 3000 | 342 | > 10000 | –
RH-41 (Rhabdomyosarcoma) | > 1000 | 88.5 | > 10000 | 96.8 | 57 | > 10000 | 23.1 | 476 | > 10000 | > 1000 | > 2000 | 1980 | 314 | 4120 | 93.1 | 87 | > 3000 | > 1000 | > 10000 | 3430 | > 1 | > 300 | > 1000 | > 10000 | > 3000 | 729 | > 10000 | –
huH-1 (Hepatocellular Carcinoma) | > 1000 | > 1000 | > 10000 | > 1000 | 68 | > 10000 | 93 | > 1000 | > 10000 | > 1000 | > 2000 | > 10000 | > 10000 | 5640 | > 10000 | > 1000 | > 3000 | > 1000 | > 10000 | > 10000 | > 1 | > 300 | > 1000 | > 10000 | > 3000 | 2520 | > 10000 | –
